PubChem BioAssay AID248 (DTP/NCI, 2004)
Several values for one entry are separate records, joined by “and”; a condition that tells them apart may be missing. Equal values may be shown once. Inconclusive results and toxic doses are left out. Cut-off read from the data, not from the text of the source: active = T/C of 150% or more; inactive = T/C below 125%.

Test system: L1210 leukemia ip in BDF1 mice, survival T/C
Experiment: NCI In Vivo Anticancer Drug Screen. Data for tumor model L1210 Leukemia (intraperitoneal) in B6D2F1 (BDF1) mice
Details: endpoint: mean survival time, higher = longer survival
Summary of the method: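 Tumor cells were implanted, animals were treated, and survival was followed. The result divides the treated measurement by the vehicle-control measurement.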

[1] = dose: 100.0 mg/kg/injection, schedule: Q01DX009 (ip), vehicle: saline
[2] = dose: 100.0 mg/kg/injection, schedule: Q04DX003 (ip), vehicle: saline
[3] = dose: 200.0 mg/kg/injection, schedule: Q04DX003 (ip), vehicle: saline
[4] = dose: 400.0 mg/kg/injection, schedule: Q04DX003 (ip), vehicle: saline
[5] = dose: 50.0 mg/kg/injection, schedule: Q01DX009 (ip), vehicle: saline with Tween-80
[6] = dose: 100.0 mg/kg/injection, schedule: Q01DX009 (ip), vehicle: saline with Tween-80
[7] = dose: 100.0 mg/kg/injection, schedule: Q04DX003 (ip), vehicle: Klucel (hydroxypropylcellulose) (HPC)
[8] = dose: 200.0 mg/kg/injection, schedule: Q04DX003 (ip), vehicle: Klucel (hydroxypropylcellulose) (HPC)
[9] = dose: 200.0 mg/kg/injection, schedule: Q01DX009 (ip), vehicle: saline with Tween-80
[10] = dose: 25.0 mg/kg/injection, schedule: Q04DX003 (ip), vehicle: Klucel (hydroxypropylcellulose) (HPC)
[11] = dose: 50.0 mg/kg/injection, schedule: Q04DX003 (ip), vehicle: Klucel (hydroxypropylcellulose) (HPC)

Measured: T/C

O=C1C(N2CCCC2)=C(N2CC2)C(=O)C(N2CCCC2)=C1N1CC1
inactive: dose: 0.25 mg/kg/injection, schedule: Q01DX009 (ip), vehicle: saline 94 % of control and 119 % of control | dose: 0.39 mg/kg/injection, schedule: Q04DX003 (ip), vehicle: saline 108 % of control | dose: 0.5 mg/kg/injection, schedule: Q01DX009 (ip), vehicle: saline 101 % of control and 103 % of control | dose: 0.78 mg/kg/injection, schedule: Q04DX003 (ip), vehicle: saline 96 % of control | dose: 1.0 mg/kg/injection, schedule: Q01DX009 (ip), vehicle: saline 106 % of control and 118 % of control | dose: 1.56 mg/kg/injection, schedule: Q04DX003 (ip), vehicle: saline 115 % of control | dose: 2.0 mg/kg/injection, schedule: Q01DX001 (ip), vehicle: saline 108 % of control | dose: 2.0 mg/kg/injection, schedule: Q01DX009 (ip), vehicle: saline 121 % of control and 124 % of control | dose: 4.0 mg/kg/injection, schedule: Q01DX001 (ip), vehicle: saline 97 % of control | dose: 8.0 mg/kg/injection, schedule: Q01DX001 (ip), vehicle: saline 87 % of control | dose: 12.5 mg/kg/injection, schedule: Q04DX003 (ip), vehicle: saline 92 % of control

COC(CN(C)CC(OC)OC)OC
inactive: [1] 107 % of control | [2] 97 % of control | dose: 200.0 mg/kg/injection, schedule: Q01DX009 (ip), vehicle: saline 96 % of control | [3] 112 % of control | dose: 400.0 mg/kg/injection, schedule: Q01DX009 (ip), vehicle: saline 98 % of control | [4] 105 % of control

O=C(Nc1cccc(C(F)(F)F)c1)Nc1ccc2sc(=S)[nH]c2c1
inactive: dose: 6.25 mg/kg/injection, schedule: Q01DX009 (ip), vehicle: saline with Tween-80 95 % of control | dose: 12.5 mg/kg/injection, schedule: Q01DX009 (ip), vehicle: saline with Tween-80 93 % of control | dose: 25.0 mg/kg/injection, schedule: Q01DX009 (ip), vehicle: saline with Tween-80 93 % of control | [5] 86 % of control | [6] 86 % of control | dose: 400.0 mg/kg/injection, schedule: Q01DX009 (ip), vehicle: saline with Tween-80 95 % of control

Cn1c(=O)c2ccccc2n(C)c1=O
inactive: [7] 96 % of control | [8] 102 % of control | dose: 400.0 mg/kg/injection, schedule: Q04DX003 (ip), vehicle: Klucel (hydroxypropylcellulose) (HPC) 100 % of control

SCCSCCNc1ccccc1
inactive: [5] 101 % of control | [6] 101 % of control | [9] 101 % of control

O=c1c2nccnc2[nH]n1-c1ccccc1
inactive: [10] 90 % of control | [11] 95 % of control

CCOC(=O)Cc1cc(=O)c2ccc(Cl)cc2[nH]1
inactive: dose: 100.0 mg/kg/injection, schedule: Q01DX001 (ip), vehicle: other 92 % of control | dose: 200.0 mg/kg/injection, schedule: Q01DX001 (ip), vehicle: other 97 % of control | dose: 400.0 mg/kg/injection, schedule: Q01DX001 (ip), vehicle: other 92 % of control

COc1cc(C(=O)c2cocc2C(=O)c2ccc3c(c2)OCO3)cc(OC)c1OC
inactive: dose: 50.0 mg/kg/injection, schedule: Q01DX009 (ip), vehicle: acetone 110 % of control | dose: 100.0 mg/kg/injection, schedule: Q01DX009 (ip), vehicle: acetone 94 % of control | dose: 200.0 mg/kg/injection, schedule: Q01DX009 (ip), vehicle: acetone 112 % of control | dose: 400.0 mg/kg/injection, schedule: Q01DX009 (ip), vehicle: acetone 110 % of control

COc1ccc([N+](=O)[O-])c2conc12
inactive: [5] 95 % of control | [6] 98 % of control | [9] 103 % of control

O=C(N/N=C/c1[nH]c(=S)[nH]c(=O)c1Cc1ccc(Cl)cc1)c1ccncc1
inactive: dose: 100.0 mg/kg/injection, schedule: Q01DX001 (ip), vehicle: Klucel (hydroxypropylcellulose) (HPC) 104 % of control | dose: 200.0 mg/kg/injection, schedule: Q01DX001 (ip), vehicle: Klucel (hydroxypropylcellulose) (HPC) 101 % of control | dose: 400.0 mg/kg/injection, schedule: Q01DX001 (ip), vehicle: Klucel (hydroxypropylcellulose) (HPC) 98 % of control

O=C(O)c1ccc(Cl)o1
inactive: dose: 100.0 mg/kg/injection, schedule: Q01DX009 (ip), vehicle: Klucel (hydroxypropylcellulose) (HPC) 97 % of control | dose: 200.0 mg/kg/injection, schedule: Q01DX009 (ip), vehicle: Klucel (hydroxypropylcellulose) (HPC) 98 % of control

COc1ccc(C(=O)N/N=C/c2cccc(OC)c2OC)cc1
inactive: dose: 45.0 mg/kg/injection, schedule: Q01DX009 (ip), vehicle: saline 98 % of control | dose: 65.0 mg/kg/injection, schedule: Q01DX009 (ip), vehicle: saline 98 % of control | dose: 85.0 mg/kg/injection, schedule: Q04DX003 (ip), vehicle: saline 93 % of control | [1] 102 % of control | dose: 100.0 mg/kg/injection, schedule: Q04DX002 (ip), vehicle: Klucel (hydroxypropylcellulose) (HPC) 104 % of control and 105 % of control | dose: 130.0 mg/kg/injection, schedule: Q04DX003 (ip), vehicle: saline 93 % of control | dose: 150.0 mg/kg/injection, schedule: Q01DX009 (ip), vehicle: saline 95 % of control | dose: 175.0 mg/kg/injection, schedule: Q01DX001 (ip), vehicle: saline 104 % of control | dose: 175.0 mg/kg/injection, schedule: Q04DX002 (ip), vehicle: saline 91 % of control | dose: 200.0 mg/kg/injection, schedule: Q04DX002 (ip), vehicle: Klucel (hydroxypropylcellulose) (HPC) 101 % of control and 104 % of control | [3] 93 % of control | dose: 265.0 mg/kg/injection, schedule: Q01DX001 (ip), vehicle: saline 107 % of control | dose: 265.0 mg/kg/injection, schedule: Q04DX002 (ip), vehicle: saline 102 % of control | dose: 300.0 mg/kg/injection, schedule: Q04DX003 (ip), vehicle: saline 102 % of control | dose: 400.0 mg/kg/injection, schedule: Q01DX001 (ip), vehicle: saline 96 % of control | dose: 400.0 mg/kg/injection, schedule: Q04DX002 (ip), vehicle: saline 96 % of control | dose: 600.0 mg/kg/injection, schedule: Q01DX001 (ip), vehicle: saline 102 % of control | dose: 600.0 mg/kg/injection, schedule: Q04DX002 (ip), vehicle: saline 106 % of control

CCOc1ccc(/C=C/[N+](=O)[O-])cc1
inactive: dose: 12.5 mg/kg/injection, schedule: Q01DX009 (ip), vehicle: Klucel (hydroxypropylcellulose) (HPC) 96 % of control | dose: 12.5 mg/kg/injection, schedule: Q04DX003 (ip), vehicle: Klucel (hydroxypropylcellulose) (HPC) 95 % of control | dose: 25.0 mg/kg/injection, schedule: Q01DX009 (ip), vehicle: Klucel (hydroxypropylcellulose) (HPC) 97 % of control | [10] 114 % of control | dose: 50.0 mg/kg/injection, schedule: Q01DX009 (ip), vehicle: Klucel (hydroxypropylcellulose) (HPC) 105 % of control | [11] 101 % of control | [7] 94 % of control | [8] 95 % of control

c1ccc2cc(CCc3cc4ccccc4cn3)ncc2c1
inactive: [2] 105 % of control | [3] 94 % of control | [4] 87 % of control

N/C(=N\O)c1cn(C2OC(CO)C(O)C2O)c2ncncc12 (configuration not stated)
inactive: dose: 25.0 mg/kg/injection, schedule: Q01DX009 (ip), vehicle: saline 123 % of control | dose: 100.0 mg/kg/injection, schedule: Q01DX005 (ip), vehicle: saline 120 % of control
